Test results from patent US5563037A, “Homogeneous method for assay of double-stranded nucleic acids using fluorescent dyes and kit useful therein” (Johnson & Johnson Clinical Diagnostics, Inc., priority 1995, dated 1996).
Where “and” joins values, the source holds several entries; their conditions need not be identical. Equal values may be shown once.

How the values were obtained:
[1] = system: HIV-I DNA; assay: Example 3: fluorescence after amplification with dye; usefulness / PCR inhibition; assay type: biochemical
Protocol: The primers used in Example 3 had the following sequences which are complementary to the gag region of HIV-I DNA: Amplification experiments like those of Example 2 were also carried out to evaluate the usefulness of several other conventional fluorescent dye stains. In these assays, primers identified above as SEQ ID NO:3 and SEQ ID NO:4 were used, as well as the probe identified as SEQ ID NO:6. […] Fluorescence was determined as described in Example 2 except that all amplified samples were mixed with a solution of YOYO-1 (0.1 μmolar) to provide a common minimum threshold of signal.

[2] = system: HIV-I DNA; assay: Example 2: fluorescence of amplification products; assay type: biochemical
Protocol: (§1) The method of this invention was compared to an amplification and detection method outside the scope of this invention, which was carried out using YOYO-1 (1 μmolar final concentration), a tetravalent fluorescent dye, in the buffered solution described above. This dye has the following structure: [drawing 4]
(§2) The PCR reaction mixture of Example 1 (except the DNA polymerase) was made to a volume of 5472 μl. The resulting mixture was aliquoted into tubes A, B and C (1824 μl each) representing Samples A, B and C, respectively.
(§3) The sample in Tube A was diluted with buffer (220 μl) and subjected to amplification without any fluorescence dye present. The dye was added at the end of amplification for quantitative detection of the resulting products.
(§4) In addition to the PCR reagents, the sample in Tube B contained YOYO-1 fluorescent dye (0.1 μmolar) which had been added prior to amplification (220 μl of a 10 μmolar solution).
(§5) The sample in Tube C also contained YO-PRO-1 fluorescent dye (0.1 μmolar) which had been added prior to amplification (220 μl of a 10 μmolar solution).
(§6) The DNA polymerase (88 μl) and target HIV-I DNA target nucleic acid (220 μl) were then added to each tube, and the contents of the each of the three tubes were used to fill the PCR reagent compartment of eight pouches.
Amplification was carried out using the same procedures as in Example 1. […]
(§7) The results of amplification were detected in three ways: (1) color dye scores visually evaluated as 0 (no signal) to 10 (highest signal density), (2) ethidium bromide stained electrophoretic gels, and (3) fluorescence measured on a commercially available Perkin Elmer fluorimeter.
Three replicate assays of each sample (A, B and C) were carried out using each detection means. The average result for each detection means was as follows:
Fluorescent signal was generated using a Perkin-Elmer LS-5B fluorimeter, at the following wavelengths for both dyes:
Each amplification product mixture was diluted 100× into a solution of each dye (1 μmolar final concentration). Background signals were obtained from a mixture of amplification reagent mixture and each dye.

[3] = system: HIV-I DNA; assay: Example 2: leuco dye color scores of amplified target in pouches; assay type: biochemical; settings: dye added prior to amplification
Protocol: as §1
Amplification was carried out using self-contained chemical pouches such as those described in U.S. Pat. No. 5,229,297 (Schnipelsky et al). Those pouches contained the capture probe SEQ ID NO:5 attached to particles which were immobilized in a detection channel where reactions can take place.
The pouches were loaded with reagents, as follows:
as §2, §3, §4, §5, §6
Amplification was carried out using the same procedures as in Example 1. The PCR protocol was similarly carried out for 40 cycles using a thermal cycler as follows:
1) Preheat to denature at 95° C. for 60 seconds,
priming and extension for 40 seconds at 63.5° C., and denaturation for 10 seconds at 95° C., and
3) final denaturation for 60 seconds at 95° C.
as §7
The noted color scores were obtained by using immobilized capture probes in the pouches with which the amplified target hybridized during incubation for 5 minutes at 42° C. The immobilized target was contacted with the conjugate solution (identified above) for 1 minute at 30° C., followed by the wash solution for 1 minute at 55° C. The leuco dye solution was then added at 30° C. and the resulting color signal was observed after two minutes incubation at 30° C. […]

[4] = target: double-stranded nucleic acids; assay: Binding constant (Kb) of fluorescent dye with double-stranded nucleic acids; settings: Kp from Molecular Probes catalog divided by 55
Text: The fluorescent dyes useful herein are generally defined as unsymmetrical cyanine dyes having a binding constant (Kb) within the range of from about 1×104 to about 5×105 (molar^-1). As used to define Kb, "about" refers to a variance of 10%. The dyes are also water-soluble or water-dispersible so they can bind to the nucleic acids in the aqueous reaction mixture. Depending upon the anions used, the dyes may be dissolved in a water-miscible solvent.
Particularly useful fluorescent dyes are commercially available from Molecular Probes, Inc. having the trade names and Kp values listed in Table I below. However, this invention is not to be construed as limited to the particular Molecular Probes, Inc. dyes listed therein since these are but preferred dyes. The cations of these preferred dyes are also identified below by chemical structure. The compounds can include any suitable divalent anion, or two monovalent anions. Iodide is preferred. [drawing 3]
*The Kb values in the table were calculated by dividing the partitio
coefficient (Kp) reported in the Molecular Probes, Inc. catalog, page 224
by 55, the molarity of water.

Kd [4]: 6.67 µM
SMILES: C[n+]1c(C=C2C=CN(CCC[N+](C)(C)C)c3ccccc32)oc2ccccc21 [Compound E]
Fluorescent Signal ([1]; amplified samples mixed with YOYO-1 (0.1 μmolar)): 16
usefulness of dye / inhibition of PCR ([1]; dye in amplification): useful
Fluorescence, dye added after amplification (Sample A) ([2]; Sample A, dye added after amplification, replicates, 491/509 nm, listed as YO-PRO-1): 3.6 Fluorescent Units and 3.7 Fluorescent Units and 3.4 Fluorescent Units and 3.0 Fluorescent Units
Background fluorescence ([2]; amplification reagent mixture and dye, excitation 491 nm, emission 509 nm): 0.03 Fluorescent Units
effect of dye on amplification / overall signal ([2]; comparison of the two dyes (fluorescence)): lower overall signal
Fluorescence, dye present during amplification (Samples B, C) ([2]; dye added prior to amplification, replicates, 491/509 nm, listed as YO-PRO-1): 3.7 Fluorescent Units and 3.5 Fluorescent Units and 3.6 Fluorescent Units and 3.2 Fluorescent Units and 2.8 Fluorescent Units
signal and use of dye during amplification ([2]; dye included in reagent mixture during amplification): can be included in the reagent mixture during amplification
effect of dye on amplification (color scores) [3]: not adversely affected
Average Color Score ([3]; leuco dye, 0 (no signal) to 10 (highest signal density), 40 cycles): 6
